Reference: ChEMBL document CHEMBL1127264, “Substituted 1,3-benzodioxole & 1,3-benzodithiole -2-carboxylates and their tetrazole analogs with potent binding affinity to the angiotensin II AT1 receptor” (Bioorg Med Chem Lett, 1994)

Legend:
[1] = molecular target: T1, Type-1 angiotensin II receptor (Oryctolagus cuniculus, UniProt P34976); assay: Binding affinity to Angiotensin II receptor, type 1 in rabbit aorta binding assay; type: tissue-based
T1 sequence (P34976 whole entry): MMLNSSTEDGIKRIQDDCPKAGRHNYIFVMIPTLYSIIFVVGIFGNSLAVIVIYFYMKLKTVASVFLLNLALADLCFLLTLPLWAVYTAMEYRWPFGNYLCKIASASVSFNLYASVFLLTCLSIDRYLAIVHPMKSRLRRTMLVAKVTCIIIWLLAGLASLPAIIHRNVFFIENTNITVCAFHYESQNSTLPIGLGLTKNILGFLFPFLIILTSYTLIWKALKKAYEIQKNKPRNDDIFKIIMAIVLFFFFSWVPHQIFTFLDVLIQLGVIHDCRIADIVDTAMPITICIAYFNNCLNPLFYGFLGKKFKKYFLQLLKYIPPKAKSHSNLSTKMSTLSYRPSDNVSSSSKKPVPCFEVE

[2] = molecular target: T2, Type-2 angiotensin II receptor (Rattus norvegicus, UniProt P35351); assay: Binding affinity to AT2 receptor in rat midbrain binding assay; type: tissue-based
T2 sequence (P35351 whole entry): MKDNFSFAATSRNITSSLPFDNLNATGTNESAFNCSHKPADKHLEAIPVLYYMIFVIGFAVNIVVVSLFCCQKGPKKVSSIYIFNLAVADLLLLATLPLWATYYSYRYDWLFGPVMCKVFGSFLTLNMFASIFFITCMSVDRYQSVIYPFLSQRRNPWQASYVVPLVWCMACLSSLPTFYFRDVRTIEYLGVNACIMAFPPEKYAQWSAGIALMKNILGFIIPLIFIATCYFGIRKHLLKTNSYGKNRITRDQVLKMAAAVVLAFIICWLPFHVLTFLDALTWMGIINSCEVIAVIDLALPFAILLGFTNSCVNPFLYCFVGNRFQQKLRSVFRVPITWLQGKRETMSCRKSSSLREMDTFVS

| IC50 [1] [nM] | IC50 [2] [nM] | Compound |
| --- | --- | --- |
| 45 | 16000 | CCCc1nc2c(C)ccnc2n1Cc1ccc2c(c1)OC(c1ccccc1)(c1nn[nH]n1)O2 (stereo not drawn) |
| 34 | 8100 | CCCc1nc2c(C)ccnc2n1Cc1ccc2c(c1)SC(C(=O)O)(c1ccccc1)S2 (stereo not drawn) |
| 35 | 15000 | CCCc1nc2c(C)ccnc2n1Cc1ccc2c(c1)SC(c1ccccc1)(c1nn[nH]n1)S2 (stereo not drawn) |
| 56 | 2800 | CCCc1nc2c(C)ccnc2n1Cc1ccc2c(c1)OC(C(=O)O)(c1ccccc1)O2 (stereo not drawn) |
